From US20210110884A1 (priority 2019, published 2021)

T1: E. coli DHFR (Escherichia coli, UniProt P0ABQ4)
T1 sequence (P0ABQ4 1-159): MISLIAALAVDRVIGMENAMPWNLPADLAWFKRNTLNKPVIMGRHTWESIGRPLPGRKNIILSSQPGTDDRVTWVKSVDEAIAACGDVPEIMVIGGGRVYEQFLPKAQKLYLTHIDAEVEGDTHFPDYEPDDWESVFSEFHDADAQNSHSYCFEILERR

B1: BChEG117: butyrylcholinesterase as printed without H; apparently the enzyme lacking the G117H mutation (protein, UniProt P06276 29-602, looked up)
Cholinesterase: EDDIIIATKNGKVRGMNLTVFGGTVTAFLGIPYAQPPLGRLRFKKPQSLTKWSDIWNATKYANSCCQNIDQSFPGFHGSEMWNPNTDLSEDCLYLNVWIPAPKPKNATVLIWIYGGGFQTGTSSLHVYDGKFLARVERVIVVSMNYRVGALGFLALPGNPEAPGNMGLFDQQLALQWVQKNIAAFGGNPKSVTLFGESAGAASVSLHLLSPGSHSLFTRAILQSGSFNAPWAVTSLYEARNRTLNLAKLTGCSRENETEIIKCLRNKDPQEILLNEAFVVPYGTPLSVNFGPTVDGDFLTDMPDILLELGQFKKTQILVGVNKDEGTAFLVYGAPGFSKDNNSIITRKEFQEGLKIFFPGVSEFGKESILFHYTDWVDDQRPENYREALGDVVGDYNFICPALEFTKKFSEWGNNAFFYYFEHRSSKLPWPEWMGVMHGYEIEFVFGLPLERRDNYTKAEEILSRSIVKRWANFAKYGNPNETQNNSTSWPVFKSTEQKYLTLNTESTRIMTKLRAQQCRFWTSFFPKVLEMTGNIDEAEWEWKAGFHRWNNYMMDWKNQFNDYTSKKESCVGL

Assays:
E. coli DHFR = biological target: T1, E. coli DHFR; format: biochemical
[1] = format: biochemical

Molecule	decrease of hydride transfer by E. coli DHFR (E. coli DHFR) [fold]	pH independent rate for hydride transfer (E. coli DHFR) [s^−1]	inhibition by selected OP concentrations [1] [%]
CC(C)O [isopropanol]	2.2	530±10	
B1			> 99
